Data as given in ChEMBL document CHEMBL1201862, “PubChem BioAssay data set” (2004).
Activity calls are given as the source filed them.

Experiments:
HEK293 [1] = test: inhibitors of LMP1-driven NF-kB reporter, dose response, cell-based, HEK293, luciferase, cherry-pick (AID 588343); type: functional; conditions: Homo sapiens
[2] = inhibitors of HIV Env-driven cell fusion, dose response, cherry-pick (AID 652057); type: functional, cell-based
[3] = target: T1, Corticotropin-releasing factor receptor 2/Corticotropin-releasing factor-binding protein (Homo sapiens, UniProt P24387+Q13324); test: activators of CRF receptor 2 with binding protein – uHTS hits, confirmation (AID 602473); type: functional; conditions: read-out: EC50_Mean
T1 sequence (Q13324 whole entry): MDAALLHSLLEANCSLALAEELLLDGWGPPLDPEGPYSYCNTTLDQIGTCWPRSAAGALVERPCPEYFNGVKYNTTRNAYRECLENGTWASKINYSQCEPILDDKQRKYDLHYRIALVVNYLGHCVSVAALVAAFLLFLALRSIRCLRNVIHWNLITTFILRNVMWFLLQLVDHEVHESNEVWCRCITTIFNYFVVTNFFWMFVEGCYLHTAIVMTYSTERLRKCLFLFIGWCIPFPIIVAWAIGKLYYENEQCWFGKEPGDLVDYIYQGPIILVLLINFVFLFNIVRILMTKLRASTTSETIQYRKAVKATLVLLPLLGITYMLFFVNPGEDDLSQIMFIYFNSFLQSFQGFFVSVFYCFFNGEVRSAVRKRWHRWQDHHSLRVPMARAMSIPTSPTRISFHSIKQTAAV
T1 sequence (P24387 whole entry): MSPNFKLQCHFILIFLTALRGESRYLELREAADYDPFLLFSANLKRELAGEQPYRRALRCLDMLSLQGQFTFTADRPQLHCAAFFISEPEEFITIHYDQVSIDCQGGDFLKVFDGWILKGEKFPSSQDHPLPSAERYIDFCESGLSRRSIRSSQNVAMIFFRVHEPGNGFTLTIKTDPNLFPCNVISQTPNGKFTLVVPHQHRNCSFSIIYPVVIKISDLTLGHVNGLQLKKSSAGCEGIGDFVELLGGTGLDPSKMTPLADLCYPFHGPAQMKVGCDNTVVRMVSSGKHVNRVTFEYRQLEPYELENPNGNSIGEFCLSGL

[4] = ZM109 Env clade C HIV-1 fusion inhibitors, dose response, HeLa effector, CEM target cells, luciferase, cherry-pick (AID 652058); type: functional, cell-based
[5] = inhibitors of clade B AD8 Env fusion, dose response, cell-based, cherry-pick (AID 652062); type: functional;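 note: luciferase signal from cell-cell fusion driven by HIV-1 clade B AD8 Env; potency is for inhibitors of fusion seen as a drop in luminescence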
[6] = off-target signal loss in HeLa-CEM21 co-culture – HeLa F-luc CTL cells, cherry-picked, counter-screen for HIV-1 Env fusion inhibitor project, dose response (AID 652040); type: functional, cell-based;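 note: potency for signal decrease marking cytotoxic or nonspecific inhibition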
HeLa = test: HeLa cell cytotoxicity, dose response, cytotoxicity control for MITF activator project, CellTiter-Glo luminescence, cherry-pick samples (AID 540259); type: functional, cell-based; conditions: Homo sapiens
Estrogen receptor = target: T2, Estrogen receptor (Homo sapiens, UniProt P03372);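 note: potency for inhibiting coactivator peptide recruitment to the receptor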
T2 sequence (P03372 whole entry): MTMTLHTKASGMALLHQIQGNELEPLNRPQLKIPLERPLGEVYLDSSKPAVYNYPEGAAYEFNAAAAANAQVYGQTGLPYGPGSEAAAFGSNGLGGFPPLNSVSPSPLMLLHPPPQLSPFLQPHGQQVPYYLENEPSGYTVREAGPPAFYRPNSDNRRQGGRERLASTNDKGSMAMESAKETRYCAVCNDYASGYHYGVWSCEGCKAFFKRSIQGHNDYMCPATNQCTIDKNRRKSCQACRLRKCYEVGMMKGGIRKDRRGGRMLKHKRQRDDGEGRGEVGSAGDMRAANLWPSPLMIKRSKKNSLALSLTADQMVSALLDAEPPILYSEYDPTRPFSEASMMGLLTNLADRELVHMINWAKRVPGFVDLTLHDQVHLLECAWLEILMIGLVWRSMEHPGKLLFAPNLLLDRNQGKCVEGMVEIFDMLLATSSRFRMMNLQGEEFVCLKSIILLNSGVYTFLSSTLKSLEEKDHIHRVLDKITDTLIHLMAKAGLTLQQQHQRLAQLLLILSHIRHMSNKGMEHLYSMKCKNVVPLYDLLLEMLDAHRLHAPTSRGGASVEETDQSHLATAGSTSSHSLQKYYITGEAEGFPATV

[7] = target: T3, Zinc finger protein mex-5 (Caenorhabditis elegans, UniProt Q9XUB2); test: MEX-5/TCR-2 RNA interaction inhibitors, dose response, biochemical, C. elegans, fluorescence polarization (AID 1960)
T3 sequence (Q9XUB2 whole entry): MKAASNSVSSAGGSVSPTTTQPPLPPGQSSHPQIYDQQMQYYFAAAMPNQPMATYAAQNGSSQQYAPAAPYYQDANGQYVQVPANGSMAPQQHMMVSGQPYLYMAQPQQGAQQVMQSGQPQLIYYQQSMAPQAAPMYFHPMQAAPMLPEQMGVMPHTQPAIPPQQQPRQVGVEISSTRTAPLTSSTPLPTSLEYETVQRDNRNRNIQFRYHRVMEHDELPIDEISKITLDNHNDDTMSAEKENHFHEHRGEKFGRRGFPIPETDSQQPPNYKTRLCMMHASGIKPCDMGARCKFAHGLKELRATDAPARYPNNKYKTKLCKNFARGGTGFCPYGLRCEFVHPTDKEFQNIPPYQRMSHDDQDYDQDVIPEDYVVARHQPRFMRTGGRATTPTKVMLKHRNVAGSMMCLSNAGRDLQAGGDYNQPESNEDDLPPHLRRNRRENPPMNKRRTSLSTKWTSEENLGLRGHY

HEK293 [8] = test: cells; type: functional, cell-based; conditions: Homo sapiens
HEK293 [9] = test: NOD2 signaling inhibitors in MDP-stimulated cells, cell-based, uHTS, luminescence (AID 2001); type: functional; conditions: Homo sapiens
HEK293 [10] = test: NOD1 signaling inhibitors, primary screen, cell-based, luminescence, uHTS (AID 1578); type: functional; conditions: Homo sapiens
HEK293 [11] = test: cells; type: functional, cell-based; conditions: Homo sapiens; remark: listed apart in the source
[12] = target: T4, RNA-binding protein pos-1 (Caenorhabditis elegans, UniProt G5EF15); test: inhibitors of POS-1/mex-3 RNA binding, dose response, biochemical, fluorescence polarization (AID 1964);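 note: purified POS-1 fused to maltose binding protein made in E. coli; potency of compounds blocking POS-1 binding to fluorescent RNA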
T4 sequence (G5EF15 whole entry): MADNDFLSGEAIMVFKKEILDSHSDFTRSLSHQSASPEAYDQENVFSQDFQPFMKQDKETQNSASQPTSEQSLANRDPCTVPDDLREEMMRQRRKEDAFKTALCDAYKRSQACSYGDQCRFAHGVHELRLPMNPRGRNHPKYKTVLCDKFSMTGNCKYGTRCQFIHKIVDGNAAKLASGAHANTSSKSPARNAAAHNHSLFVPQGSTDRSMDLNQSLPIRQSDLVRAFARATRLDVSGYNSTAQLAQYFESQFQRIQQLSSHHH

[13] = Counterscreen for activators of the function of SWI/SNF related, matrix associated, actin dependent regulator of chromatin, subfamily a, member 2 (SMARCA2, BRM): Luminescence-based cell-based high throughput dose response assay to identify non-selective compounds using the VP16 reporter assay.; type: functional
[14] = target: SWI/SNF-related matrix-associated actin-dependent regulator of chromatin subfamily A member 2 (Homo sapiens, UniProt P51531); test: Luminescence-based cell-based high throughput dose response assay to identify activators of the function of SWI/SNF related, matrix associated, actin dependent regulator of chromatin, subfamily a, member 2 (SMARCA2, BRM).; type: functional
Sequence of SWI/SNF-related matrix-associated actin-dependent regulator of chromatin subfamily A member 2 (P51531 whole entry, the tested form may be a part): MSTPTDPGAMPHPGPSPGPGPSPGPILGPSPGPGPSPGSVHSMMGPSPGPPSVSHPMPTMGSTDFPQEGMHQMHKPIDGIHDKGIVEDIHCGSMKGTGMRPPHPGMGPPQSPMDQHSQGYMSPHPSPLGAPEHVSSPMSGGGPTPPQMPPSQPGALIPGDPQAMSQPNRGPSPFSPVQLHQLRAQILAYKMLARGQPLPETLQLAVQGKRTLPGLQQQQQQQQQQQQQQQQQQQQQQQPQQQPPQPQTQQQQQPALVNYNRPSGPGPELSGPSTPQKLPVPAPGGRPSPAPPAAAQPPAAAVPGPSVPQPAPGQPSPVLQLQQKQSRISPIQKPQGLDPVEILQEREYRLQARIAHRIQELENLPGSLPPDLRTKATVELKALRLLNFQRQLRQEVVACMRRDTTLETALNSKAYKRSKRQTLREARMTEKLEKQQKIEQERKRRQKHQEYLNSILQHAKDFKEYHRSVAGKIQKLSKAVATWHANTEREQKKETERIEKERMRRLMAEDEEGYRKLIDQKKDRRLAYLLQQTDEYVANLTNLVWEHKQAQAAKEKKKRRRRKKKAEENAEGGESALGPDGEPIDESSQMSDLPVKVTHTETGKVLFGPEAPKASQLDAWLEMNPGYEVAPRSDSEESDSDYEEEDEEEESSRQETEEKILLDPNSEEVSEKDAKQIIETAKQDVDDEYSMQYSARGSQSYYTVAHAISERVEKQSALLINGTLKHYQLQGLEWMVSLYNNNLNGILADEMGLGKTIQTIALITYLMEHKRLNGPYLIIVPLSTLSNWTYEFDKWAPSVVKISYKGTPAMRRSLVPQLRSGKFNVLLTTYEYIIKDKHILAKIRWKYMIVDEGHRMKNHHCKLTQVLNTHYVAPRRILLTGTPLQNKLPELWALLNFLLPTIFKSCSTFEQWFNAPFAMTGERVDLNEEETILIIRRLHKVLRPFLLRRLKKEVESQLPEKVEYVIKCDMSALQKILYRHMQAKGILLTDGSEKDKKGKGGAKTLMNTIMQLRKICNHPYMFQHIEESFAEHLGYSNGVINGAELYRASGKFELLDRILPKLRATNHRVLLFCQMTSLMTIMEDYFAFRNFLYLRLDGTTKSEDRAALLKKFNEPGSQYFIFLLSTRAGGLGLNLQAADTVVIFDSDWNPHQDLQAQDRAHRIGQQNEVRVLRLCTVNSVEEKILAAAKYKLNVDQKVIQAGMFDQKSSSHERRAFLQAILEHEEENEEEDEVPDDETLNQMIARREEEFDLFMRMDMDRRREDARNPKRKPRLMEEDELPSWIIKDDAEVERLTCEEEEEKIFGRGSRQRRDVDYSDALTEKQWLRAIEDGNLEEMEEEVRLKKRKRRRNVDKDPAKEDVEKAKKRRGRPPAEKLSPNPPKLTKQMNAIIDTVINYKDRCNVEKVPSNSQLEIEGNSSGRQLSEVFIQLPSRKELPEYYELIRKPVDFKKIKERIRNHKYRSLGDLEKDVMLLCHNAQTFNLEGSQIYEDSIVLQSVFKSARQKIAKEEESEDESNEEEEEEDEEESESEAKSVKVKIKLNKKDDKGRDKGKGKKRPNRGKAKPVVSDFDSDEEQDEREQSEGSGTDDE

[15] = CEM21 lymphoblast cell cytotoxicity, dose response, cytotoxicity control for viral fusion inhibitor project, CellTiter-Glo luminescence, cherry-picked (AID 652042); type: functional, cell-based;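 note: potency for signal decrease meaning cytotoxicity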
[16] = inhibitors of intracellular T. cruzi replication, confirmation, NIH3T3 host cells, beta-gal luminescence (AID 2044); type: functional, cell-based;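 note: intracellular parasites grown in NIH/3T3 mouse fibroblasts as host cells; luminescent beta-galactosidase reporter signal from transgenic T. cruzi replicating inside host cells; inhibitors lower the luminescence signal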
[17] = cytotoxicity toward NIH3T3 fibroblasts, dose response, counter-screen, cell-based, ATP luminescence, mouse fibroblasts (AID 2010); type: functional;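 note: cells exposed to compound for about 90 hours before reading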

CC(=NNC(=S)Nc1ccccc1)c1ccccn1
AC50 (HEK293 [1]): 0.0995 µM (active)

CC1=CC(C)(C)N(C(=O)c2ccccc2)c2ccc(C)cc21
AC50 [2]: 42.6 µM (active)
EC50 [3]: 6.89 µM (active)
AC50 [4]: 7.28 µM (active)
AC50 [5]: 42.2 µM (active)
AC50 [6]: 29.7 µM (active)

COc1cccc(C(=O)Nc2nnc(-c3ccccc3)s2)c1
AC50 (HeLa): 44.4 µM (active)

CC(=O)NC(C)C(=O)OCC(=O)Nc1ccc(Br)cc1 (configuration not stated)
IC50 (Estrogen receptor): > 50 µM (not active)

COc1ccc(/C=C/C(=O)c2c(C)cc(C)nc2O)c2ccccc12
EC50 [7]: > 300 µM (not active)
IC50 (HEK293 [8]): 10.1 µM (active)
IC50 (HEK293 [9]): 12.4 µM (inactive)
EC50 (HEK293 [10]): 4.53 µM (active)
IC50 (HEK293 [11]): > 20 µM (inactive)
EC50 [12]: > 300 µM (not active)

CCS(=O)(=O)c1ccc2oc(Nc3ccccc3C)nc2c1
AC50 (HeLa): 78.7 µM (active)

O=C(OCc1cc(=O)oc2cc(O)ccc12)c1cc(S(=O)(=O)N2CCOCC2)ccc1F
EC50 [13]: > 91.2 µM (inactive)
EC50 [14]: > 91.2 µM (inactive)

CC[C@@]12C(=O)N(c3cccc(Cl)c3)C(=O)N1[C@H](c1ccc(Br)cc1)[C@@H]1C(=O)N(C(C)(C)C)C(=O)[C@@H]12
AC50 [15]: 65.5 µM (active)
AC50 [2]: < 0.26 µM (active)
AC50 [4]: < 0.26 µM (active)
AC50 [5]: 0.342 µM (active)
AC50 [6]: < 0.26 µM (active)

C=CCn1c(SCc2csc(C)n2)nc2sc3c(c2c1=O)CCCC3
AC50 (HEK293 [1]): 35.8 µM (active)

Nc1ccc2oc(=O)c3ccccc3c2c1
AC50 (HeLa): 178 µM (active)

Cc1ccc(S(=O)(=O)N2c3ccccc3-c3c(ssc3=S)C2(C)C)cc1
AC50 (HEK293 [1]): 43.5 µM (active)
EC50 [16]: 2.65 µM (active)
EC50 [17]: > 60 µM (not active)
